Data reported in patent US7572439B2, “Enzyme disruption of bacterial biofilms” (priority 2002, dated 2009).

Legend:
SA5 [1] = test: Leaching of lysostaphin off coated surfaces; format: cell-based, S. aureus
Description: Leaching of Lysostaphin. To test whether lysostaphin was slowly being released from the catheter into the lumen solution, lysostaphin coated catheters were incubated with 100 μl PBS for 2 hours at 37° C. The PBS was then transferred into an Eppendorf tube and 10^5 CFU of SA5 was added to the effluent and incubated for 1 hour at 37° C. 40 μl from the samples were streaked onto blood agar plates and incubated overnight at 37° C. Alternatively, lysostaphin coated catheters were incubated with PBS overnight at 37° C. The following morning the PBS was washed out and the catheters were inoculated with ˜5×10^4 CFU/ml SA5 for 2 hours at 37° C. The effluent was then streaked onto blood agar plates and incubated at 37° C. overnight. To look for leaching off the polystyrene surface, the wells were coated with 10, 1 and 0.1 mg/ml lysostaphin for 60 minutes. The wells were then washed, and 300 μl of PBS was added to the wells for 2 hours and then removed 300 μl of a 5×10^4 CFU/ml solution of SA5 was added to the PBS wash and allowed to incubate for one hour at 37° C. 40 μl was then removed and streaked onto a blood agar plate and incubated overnight at 37° C.

SA5 [2] = test: Long-term leaching of lysostaphin from coated catheters; format: cell-based, S. aureus
Description: Long-term Leaching of Lysostaphin. Ten lysostaphin-coated catheters (10 mg/ml coating concentration) were incubated with PBS for 2 hours at 37° C. The catheters were then washed and two of the ten lysostaphin coated catheters were incubated with 200 μl of a 5×10^4 CFU/ml solution of SA5 for 2 hours at 37° C. The effluent was streaked on to blood agar plates and incubated at 37° C. overnight. The rest of the catheters were incubated with fresh PBS and left at 37° C. overnight. The following day, all eight catheters were washed out and two of the catheters were incubated with bacteria as above. The other six catheters were again incubated with fresh PBS and left at 37° C. overnight. This procedure was repeated everyday for four days.

S. aureus = test: Lysostaphin activity on catheters in presence of serum proteins; format: cell-based
S. aureus strain SA5 = test: Killing of bacteria in lysostaphin-coated polystyrene wells; format: cell-based; settings: for CFU (n = 2): Table 13, Polystyrene
Description: Six wells were incubated with 300 μl of either 10 mg/ml, 1 mg/ml or 100 μg/ml of lysostaphin diluted in PBS. All the samples were done in duplicates. The plate was allowed to incubate overnight at 4° C. The following morning the wells were washed with 1 ml of PBS ten times, using vacuum suction to clean out the wells. S. aureus strain SA5 was diluted in PBS to a percent transmittance of 40. A 1:10,000 dilution of this solution was made, and 300 μl was added to each well. The plates were put in a shaking incubator at 75 rpm for two hours at 37° C. After two hours, 40 μl from each well was taken out and plated onto a blood agar plate and put in the incubator overnight at 37° C. The colonies on the plates were counted the following morning.
Coating of polystyrene wells. Wells were coated with 300 μl of 10 mg/ml, 1 mg/ml or 0.1 mg/ml of lysostaphin diluted in PBS. The plate was incubated overnight at 4° C. Wells were washed with 1 ml of PBS ten times, and washes were removed by vacuum suction. 300 μl of a 5×10^4 CFU/ml solution of S. aureus was added to each well. The plate was shaken at 75 rpm for two hours at 37° C. 40 μl from each well was then removed and streaked onto a blood agar plate and incubated overnight at 37° C.

S. epidermidis biofilms = test: Disruption of S. epidermidis biofilms on glass chamber slide; format: cell-based; set-up: dose or concentration left out as unconfirmed
From the text: Three S. epidermidis strains with various capacities for glycocalyx (slime) production were examined including, S. epidermidis strain Hay (a low slime producer), S. epidermidis strain SEI 175 (a moderate slime producer) and S. epidermidis ATCC 35984 (a high slime producer). All three of these S. epidermidis strains produced biofilms on a glass chamber slide (FIG. 9) with ATCC 35984 producing the thickest and most darkly staining biofilm as expected. […] S. aureus strain SA113 was included in this experiment as a control. […] The stained material visible in lysostaphin treated wells is extracellular glycocalyx which stained pink by safranin and contained no intact gram positive S. epidermidis cells, only cellular debris.

[3] = system: Methicillin-Resistant S. aureus; test: Treatment of established infection in jugular vein catheterized mice; format: in vivo
Description: (§1) Jugular vein catheterized mice (Charles River Labs) were used. The mice were challenged through the tail vein with S. aureus (10^3-10^4CFU, a much lower dose than the 5×10^6 CFU or greater typically necessary to establish an infection in mice not catheterized). Treatment began four days post challenge when infection was established. Lysostaphin was administered through the indwelling catheter in a volume of 200 μ PBS (in the case of methicillin resistant S. aureus, nafcillin was added to the treatment). After the final treatment of the day, 50 μl of a lock solution (50% sterile glucose solution) with lysostaphin (and nafcillin, when used), added at the same concentration as used for treatment, was put in the catheters. Control mice received equal treatments with PBS and lock solution alone.
(§2) On the day following the last treatment the liver, heart and a portion of the catheter in the heart were harvested. The catheter portions were sonicated to release bacteria.

[4] = system: Methicillin Sensitive S. aureus; test: as above; format: in vivo
Description: as §1, §2

[5] = Table 7, MRSA, 20 mg/kg t.i.d. 4 days

## lysostaphin
SA5 [1]; Angiocath, coating 0.1 mg/ml, saline incubation 2 hr, bacteria added to PBS wash
  CFU (n = 3): 219 CFU
SA5 [1]; Angiocath, coating 0.1 mg/ml, saline incubation 24 hr, bacteria added to catheter
  CFU (n = 3): 0 CFU
SA5 [1]; Polystyrene, coating 0.1 mg/m, saline incubation 2 hr, killing in wash
  CFU (n = 3): 291 CFU
SA5 [1]; Polystyrene, coating 1 mg/ml, saline incubation 2 hr, killing in wash
  CFU (n = 3): 33 CFU
SA5 [1]; Polystyrene, coating 10 mg/ml, saline incubation 2 hr, killing in wash
  CFU (n = 3): 26 CFU
SA5 [1]; bacteria added to PBS wash
  reduction in bacterial counts by PBS wash from coated catheters: only minimal reduction in bacterial counts
SA5 [1]; polystyrene, 0.1 mg/ml coating, PBS wash
  log reduction in bacterial counts due to leaching: 0.33 log
SA5 [1]; polystyrene, 1 mg/ml coating, PBS wash
  log reduction of SA5 titers by wash compared to control: 1.3 log
SA5 [1]; polystyrene, 10 mg/ml coating, PBS wash
  log reduction of SA5 titers by wash compared to control: 1.4 log
SA5 [1]; vs 1500 CFU's from untreated catheters
  clearing of bacteria by coated catheters after overnight wash with PBS: complete clearing of bacteria
SA5 [2]; 10 mg/ml coated catheters, two-hour incubation with PBS
  log reduction in bacteria recovered vs uncoated catheters: 2.8 log
SA5 [2]; PBS incubation 24 hours
  log reduction in bacterial counts: 1.8 log
SA5 [2]; PBS incubation 48 hours
  log reduction in bacterial counts: 1.5 log
SA5 [2]; PBS incubation 72 hours
  log reduction in bacterial counts: 0.7 log
SA5 [2]; PBS incubation 96 hours
  log reduction in bacterial counts: 0.3 log
S. aureus; 0.1 mg/ml coated catheters incubated with human serum 24 hours
  reduction in bacterial counts: 99%
S. aureus; 10 and 1 mg/ml coated catheters incubated with human serum
  clearing of bacteria: completely cleared the bacteria
S. aureus strain SA5; coating concentration 0.1 mg/ml
  CFU (n = 2): 3 CFU
S. aureus strain SA5; coating concentration 1 mg/ml
  CFU (n = 2): 1 CFU
S. aureus strain SA5; coating concentration 10 mg/ml
  CFU (n = 2): 1 CFU
S. aureus strain SA5; bacteria added directly to the 0.1 mg/mL coated wells
  log reduction in bacterial counts: 2.4 log
S. aureus strain SA5; lysostaphin coated polystyrene wells vs control wells
  reduction in bacterial counts: 99.5%
S. aureus strain SA5; polystyrene wells, 610 CFU's in control wells
  CFU's remaining in lysostaphin coated wells, on average: 3 CFU
S. epidermidis biofilms; three hours (data not shown)
  intact bacteria on surface after treatment (microscopic examination): no intact bacteria left
S. epidermidis biofilms; three hours, strains Hay, SE1175, ATCC 35984
  disruption of S. epidermidis biofilms (safranin): disrupted the biofilms of all three strains
[3]; [5]
  S. aureus recovered, Heart: 0 CFU
  S. aureus recovered, Liver: 0 CFU
[3]; Table 7, MRSA, 40 mg/kg t.i.d. 4 days
  S. aureus recovered, Heart: 0 CFU
[3]; lower doses or different dosing regimens (40 mg/kg once then 5 mg/kg; 3 doses of 15 mg/kg then 5 mg/kg)
  clearance of the S. aureus infection: did not result in complete clearance
[3]; three times a day for four days
  minimum dose necessary to clear catheters in mice: 40 mg/kg
[4]; jugular vein catheterized mice after treatment
  S. aureus biofilm on implanted catheters (SEM, FIG. 6): cleared the S. aureus biofilm from these catheters
[4]; methicillin sensitive S. aureus, t.i.d. for 4 days
  dose required for clearance of an established catheter infection: 20 mg/kg
